Molecular target: T1, human isoform of the Kv1.5 channels (HEK293 cells, stably transfected) (Homo sapiens, UniProt P22460)
T1 construct: expressed in transfected cells; host or cells: HEK293
Experiment: FLIPR thallium ion flux assay on Kv1.5 potassium channel (FLIPR Potassium Ion Channel Assay Kit)
Format: cell-based
Settings: 10 μM compound, 15 min at 37° C; HEK293-hKv1.5; thallium fluorescence 30 secs after depolarising solution; normalised with 10 μM DPO
Description: The pharmacological assessment of the compounds on the Kv1.5 potassium channel was performed in a 96-well plate in FLIPR technology by thallium ion measurement.
The HEK293 cells, stably transfected with the human isoform of the Kv1.5 channels, are seeded 24 h before experimentation in 96-well plates (15 10^6 cells/plate, 200 μl/well) polylysinated in the following culture medium: DMEM, 10% SVF, Penicillin/Streptomycin, G418 as the selection antibiotic.
The experimentation in FLIPR is performed using the “FLIPR Potassium Ion Channel Assay Kit) as indicated by the manufacturer (Molecular Devices).
Briefly, the culture medium is replaced by the solution containing the thallium marker for 90 min at 37° C. Following this step, the compounds to be tested are added to a final concentration of 10 μM in the well for 15 min at 37° C. The basic fluorescence is subsequently read for 60 secs. The addition of a depolarising medium (20 mM of potassium and 3 mM of final thallium), opens the potassium channels and induces an increase in the fluorescence of the fluorophore thallium corresponding to an influx of thallium ions through the hKv1.5 channels. The measurement is performed 30 secs after injection of the depolarising solution. Application of 10 μM of DPO (Tocris, Kv1.5 channel blocker) allows normalisation of the fluorescence.

T1 sequence (P22460 whole entry, canonical isoform): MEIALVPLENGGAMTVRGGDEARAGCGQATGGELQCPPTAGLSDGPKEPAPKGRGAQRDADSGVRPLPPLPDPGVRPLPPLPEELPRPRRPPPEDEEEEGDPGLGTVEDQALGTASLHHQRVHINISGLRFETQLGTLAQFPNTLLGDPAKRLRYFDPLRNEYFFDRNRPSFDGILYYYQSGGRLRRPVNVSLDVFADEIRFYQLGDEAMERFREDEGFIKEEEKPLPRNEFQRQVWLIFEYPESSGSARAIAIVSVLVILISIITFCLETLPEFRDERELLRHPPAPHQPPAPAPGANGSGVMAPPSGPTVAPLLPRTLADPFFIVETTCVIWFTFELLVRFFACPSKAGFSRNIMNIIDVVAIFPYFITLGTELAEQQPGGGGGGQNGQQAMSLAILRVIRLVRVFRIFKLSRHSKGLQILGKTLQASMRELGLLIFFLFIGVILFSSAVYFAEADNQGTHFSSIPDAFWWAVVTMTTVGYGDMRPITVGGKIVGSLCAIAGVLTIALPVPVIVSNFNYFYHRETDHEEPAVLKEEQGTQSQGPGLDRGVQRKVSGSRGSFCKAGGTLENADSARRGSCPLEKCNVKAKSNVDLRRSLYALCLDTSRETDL

CC1=C(C(=O)N2CCC[C@H]2c2ccc(F)cc2)[C@@H](c2ccc(Cl)c(Cl)c2)n2nccc2N1 [BMS394136, reference compound]
inhibition at 10 µM: 99.6%

CC(c1ccccc1)n1ncc(-c2ccc(O)cc2)c(-c2ccc(O)cc2)c1=O (stereo not shown) [Example 1, 4,5-Bis-(4-hydroxy-phenyl)-2-(1-phenyl-ethyl)-2H-pyridazin-3-one]
inhibition at 10 µM: 100%

C[C@@H](c1ccccc1)n1ncc(-c2ccc(O)cc2)c(-c2ccc(O)cc2)c1=O [Example 2, 4,5-Bis-(4-hydroxy-phenyl)-2-((S)-1-phenyl-ethyl)-2H-pyridazin-3-one]
inhibition at 10 µM: 100%

C[C@H](c1ccccc1)n1ncc(-c2ccc(O)cc2)c(-c2ccc(O)cc2)c1=O [Example 3, 4,5-Bis-(4-hydroxy-phenyl)-2-((R)-1-phenyl-ethyl)-2H-pyridazin-3-one]
inhibition at 10 µM: 43.3%

CC(c1ccccc1)n1ncc(-c2ccccc2C#N)c(-c2ccccc2C#N)c1=O (stereo not shown) [Example 4, 2,2′-(6-oxo-1-(1-phenylethyl)-1,6-dihydropyridazine-4,5-diyl)dibenzonitrile]
inhibition at 10 µM: 54.9%

CC(c1ccccc1)n1ncc(-c2cccc(C#N)c2)c(-c2cccc(C#N)c2)c1=O (stereo not shown) [Example 5, 3,3′-(6-oxo-1-(1-phenylethyl)-1,6-dihydropyridazine-4,5-diyl) dibenzonitrile]
inhibition at 10 µM: 93.6%

COc1ccc(-c2cnn(C(C)c3ccccc3)c(=O)c2-c2ccc(OC)cc2)cc1 (stereo not shown) [Example 6, 4,5-Bis-(4-methoxy-phenyl)-2-(1-phenyl-ethyl)-2H-pyridazin-3-one]
inhibition at 10 µM: 94.2%

Cc1ccc(S(=O)(=O)Nc2cccc(-c3cnn(C(C)c4ccccc4)c(=O)c3-c3cccc(NS(=O)(=O)c4ccc(C)cc4)c3)c2)cc1 (stereo not shown) [Example 7, N,N′-(3,3′-(6-oxo-1-(1-phenylethyl)-1,6-dihydropyridazine-4,5-diyl)bis(3,1-phenylene))bis(4-methylbenzenesulfonamide)]
inhibition at 10 µM: 54.9%

COc1ccc(-c2c(-c3cccc(C#N)c3)cnn(C(C)c3ccccc3)c2=O)cc1 (stereo not shown) [Example 8, 3-(5-(4-methoxyphenyl)-6-oxo-1-(1-phenylethyl)-1,6-dihydropyridazin-4-yl)benzonitrile]
inhibition at 10 µM: 88%

COc1ccc(-c2c(-c3ccccc3C#N)cnn(C(C)c3ccccc3)c2=O)cc1 (stereo not shown) [Example 9, 2-[5-(4-Methoxy-phenyl)-6-oxo-1-(1-phenyl-ethyl)-1,6-dihydro-pyridazin-4-yl]-benzonitrile]
inhibition at 10 µM: 60.1%

Reference: patent publication US8993569B2, “Diarylpyridazinone derivatives, preparation thereof, and use thereof for the treatment of humans” (Pierre Fabre Medicament, priority 2010, dated 2015)
